According to patent US11098010B2 (priority 2017, dated 2021):
Read-outs that look alike come from different tables or passages of the source.

System: HBV rcDNA in HepDE19 cells
Experiment: HepDE19 assay with bDNA quantitation of HBV rcDNA
Format: cell-based, hepatitis B virus (HBV)
Settings: HepDE19 cells, inhibition of rcDNA formation, 7 day incubation, top concentration 25 μM, read-out: DE-19 bDNA EC50
[1] = Hepatitis B virus, HepDE19, 168 h

Compound	EC50 [1]	EC50
N#CCCOC(=O)N[C@H]1CCc2c(C(=O)Nc3ccc(F)c(Cl)c3)ccc(F)c21 [Compound 255, O—(S)-2-Cyanoethyl, N-4-(3-chloro-4-fluorophenylcarbamoyl)-7-fluoro-2,3-dihydro-1H-inden-1-yl carbamate]	80 nM	
N#CCCCOC(=O)N[C@H]1CCc2c(C(=O)Nc3ccc(F)c(Cl)c3)ccc(F)c21 [Compound 256, O—(S)-3-Cyanopropyl, N-4-(3-chloro-4-fluorophenylcarbamoyl)-7-fluoro-2,3-dihydro-1H-inden-1-yl carbamate]	240 nM	
O=C(Nc1ccc(F)c(Cl)c1)c1ccc(F)c2c1CCC21NC(=O)N(Cc2ccccn2)C1=O (stereo not shown) [Compound 259, N-(3-chloro-4-fluoro-phenyl)-7′-fluoro-2,5-dioxo-1-(2-pyridylmethyl) spiro[imidazolidine-4,1′-indane]-4′-carboxamide]		2900 nM
O=C(Nc1ccc(F)c(Cl)c1)c1ccc(F)c2c1CCC21NC(=O)N(Cc2ccccn2)C1=O (stereo not shown) [Compound 260, N-(3-chloro-4-fluoro-phenyl)-7-fluoro-2,5-dioxo-1-(2-pyridylmethyl)spiro [imidazolidine-4,1′-indane]-4′-carboxamide]		13000 nM
CNC(=O)NC1CCc2c(C(=O)Nc3ccc(F)c(Cl)c3)ccnc21 (stereo not shown) [Compound 263, N-(3-Chloro-4-fluorophenyl)-7-(3-methylureido)-6,7-dihydro-5H-cyclopenta[b]pyridine-4-carboxamide]	1900 nM	
COC(=O)NC1CCc2c(C(=O)Nc3ccc(F)c(Cl)c3)ccnc21 (stereo not shown) [Compound 264, O-Methyl, N-(4-((3-chloro-4-fluorophenyl)carbamoyl)-6,7-dihydro-5H-cyclopenta[b]pyridin-7-yl) carbamate]	540 nM	
O=C(NC1CCc2c(C(=O)Nc3ccc(F)c(Cl)c3)ccnc21)OCc1ccccn1 (stereo not shown) [Compound 265, O-pyridin-2-ylmethyl, N-(4-((3-chloro-4-fluorophenyl)carbamoyl)-6,7-dihydro-5H-cyclopenta[b]pyridin-7-yl) carbamate]		540 nM
O=C(NC1CCc2c(C(=O)Nc3ccc(F)c(Cl)c3)ccnc21)OCc1ccccn1 (stereo not shown) [Compound 266, O-Pyridin-2-ylmethyl, N-(4-((3-chloro-4-fluorophenyl)carbamoyl)-6,7-dihydro-5H-cyclopenta[b]pyridin-7-yl) carbamate]		430 nM
O=C(NC1CCc2c(C(=O)Nc3ccc(F)c(Cl)c3)ccnc21)OCc1ccccn1 (stereo not shown) [Compound 267, O-Pyridin-2-ylmethyl, N-(4-((3-chloro-4-fluorophenyl)carbamoyl)-6,7-dihydro-5H-cyclopenta[b]pyridin-7-yl) carbamate]		4900 nM
O=C(NC1CCc2c(C(=O)Nc3ccc(F)c(Cl)c3)cncc21)OCc1ccccn1 (stereo not shown) [Compound 269, O-pyridin-2-ylmethyl, N-(4-((3-chloro-4-fluorophenyl)carbamoyl)-6,7-dihydro-5H-cyclopenta[c]pyridin-7-yl) carbamate]		2300 nM
O=C(NC1CCc2c(C(=O)Nc3ccc(F)c(Cl)c3)cncc21)OCc1ccccn1 (stereo not shown) [Compound 270, O-Pyridin-2-ylmethyl, N-(4-((3-chloro-4-fluorophenyl)carbamoyl)-6,7-dihydro-5H-cyclopenta[c]pyridin-7-yl) carbamate]		1100 nM
O=C(Nc1ccc(F)c(Cl)c1)c1ccc(F)c2c1CCS2(=O)=O [Compound 272, N-(3-Chloro-4-fluorophenyl)-7-fluoro-2,3-dihydrobenzo[b]thiophene-4-carboxamide 1,1-dioxide]	220 nM	
O=C(Nc1ccc(F)c(Cl)c1)c1cccc2c1CCS2(=O)=O [Compound 273, N-(3-Chloro-4-fluorophenyl)-2,3-dihydrobenzo[b]thiophene-4-carboxamide 1,1-dioxide]	210 nM	
CC(C)(C)N1Cc2c(C(=O)Nc3ccc(F)c(Cl)c3)cccc2S1(=O)=O [Compound 274, 2-(tert-Butyl)-N-(3-chloro-4-fluorophenyl)-2,3-dihydrobenzo[d]isothiazole-4-carboxamide 1,1-dioxide]	4100 nM	
O=C(Nc1ccc(F)c(Cl)c1)c1cccc2c1CNS2(=O)=O [Compound 275, N-(3-Chloro-4-fluorophenyl)-2,3-dihydrobenzo[d]isothiazole-4-carboxamide-1,1-dioxide]	250 nM	
O=C(Nc1ccc(F)c(Cl)c1)c1cccc2c1CN(CCO)S2(=O)=O [Compound 276, N-(3-Chloro-4-fluorophenyl)-2-(2-hydroxyethyl)-2,3-dihydrobenzo[d]isothiazole-4-carboxamide 1,1-dioxide]	1400 nM	
CN1Cc2c(C(=O)Nc3ccc(F)c(Cl)c3)cccc2S1(=O)=O [Compound 277, N-(3-Chloro-4-fluorophenyl)-2-methyl-2,3-dihydrobenzo[d]isothiazole-4-carboxamide 1,1-dioxide]	2200 nM	
CC(C)N1Cc2c(C(=O)Nc3ccc(F)c(Cl)c3)cccc2S1(=O)=O [Compound 278, N-(3-Chloro-4-fluorophenyl)-2-isopropyl-2,3-dihydrobenzo[d]isothiazole-4-carboxamide 1,1-dioxide]	1300 nM	
O=C(Nc1ccc(F)c(Cl)c1)c1cccc2c1CN(C1CC1)S2(=O)=O [Compound 279, N-(3-chloro-4-fluorophenyl)-2-cyclopropyl-2,3-dihydrobenzo[d]isothiazole-4-carboxamide 1,1-dioxide]	580 nM	
CC(C)(C)[S@+]([O-])N[C@H]1CCc2c(C(=O)Nc3ccc(F)c(Cl)c3)ccc(F)c21 [Compound 280, (S)-1-(((S)-tert-Butylsulfinyl)amino)-N-(3-chloro-4-fluorophenyl)-7-fluoro-2,3-dihydro-1H-indene-4-carboxamide]	4600 nM	
CC(C)(C)[S@@+]([O-])N[C@H]1CCc2c(C(=O)Nc3ccc(F)c(Cl)c3)ccc(F)c21 [Compound 281, (S)-1-(((R)-tert-Butylsulfinyl)amino)-N-(3-chloro-4-fluorophenyl)-7-fluoro-2,3-dihydro-1H-indene-4-carboxamide]	4400 nM	
COC(=O)NC1CC(C)(C)c2c(C(=O)Nc3ccc(F)c(Cl)c3)ccc(F)c21 (stereo not shown) [Compound 282, O-methyl, N-(4-((3-chloro-4-fluorophenyl)carbamoyl)-7-fluoro-3,3-dimethyl-2,3-dihydro-1H-inden-1-yl) carbamate]		15000 nM
